Test results taken from patent US20110263539A1, “SHIP 1 MODULATOR COMPOUNDS” (THE UNIVERSITY OF BRITISH COLUMBIA, priority 2006, published 2011).

What was measured:
Mast cells = experiment: Stimulation of mast cells by FcεRI crosslinking (Assay 4); format: cell-based; details: anti-DNP IgE, DNP-HSA
Method: Assay 4) Stimulation of mast cells by FcåRI crosslinking. Mast cells were pre-loaded overnight in BMMC medium lacking IL-3 with 0.1 μg/ml anti-DNP IgE (SPE-7, Sigma, Oakville, Ont). For calcium flux measurements, cells were incubated with 2 μM fura 2-acetoxymethyl ester (Molecular Probes, Eugene, Oreg.) in Tyrode's buffer at 23° C. for 45 min. Cells were then washed and incubated in the presence of the test compound 30 min prior to stimulation with the indicated concentration of DNP-human serum albumin (DNP-HSA). Calcium influx was monitored by spectrofluorometry as described previously. For analysis of intracellular signaling, cells were pre-loaded with anti-DNP IgE as above, pre-treated with the test compound for 30 min at 37° C. and stimulated with 20 ng/ml DNP-HSA for 5 min. Total cell lysates were then prepared and analyzed for phospho-PKB, phospho-p38^MAPK, phospho-MAPK, Grb-2 (Cell Signalling, Mississauga, Ont) and SHIP^6 by immunoblot analysis.

[1] = system: SHIP+/+ bone marrow derived macrophages; experiment: LPS stimulation of SHIP+/+ bone marrow derived macrophages; format: cell-based, mice
Method: Bone marrow cells were aspirated from 4 to 8 week old C57B16×129Sv mixed background mice and SHIP and SHIP cells prepared as described previously. Bone marrow derived macrophages from SHIP^+/+ and SHIP^−/− mice were obtained and maintained in IMDM supplemented with 10% FCS, 150 μM MTG, 2% C127 cell conditioned medium as a source of macrophage colony stimulating factor (M-CSF) (macrophage medium)
LPS stimulation of macrophages. For the analysis of LPS-stimulated TNFα production, 2×10^5 cells were plated the night before in 24 well plates in macrophage medium. The next day, the medium was changed and AQX-016A or carrier was added to cells at the indicated concentrations for 30 min prior to the addition of 10 ng/mL LPS. Supernatants were collected for TNFα determination by ELISA (BD Biosciences, Mississauga, ON, Canada). For analysis of intracellular signaling, 2×10^6 cells were plated the night before in 6 cm tissue culture plates. The next day, the cells were cultured in macrophage medium without M-CSF for 1 hr at 37° C. and then pretreated with AQX-016A or carrier for 30 min prior to the addition of 10 ng/mL LPS for 15 min. Cells were washed with 4° C. PBS and resuspended in lysis buffer (50 mM Hepes, 2 mM EDTA, 1 mM NaVO4, 100 mM NaF, 50 mM NaPPi and 1% NP40) supplemented with Complete Protease Inhibitor Cocktail (Roche, Montreal, Canada). Lysates were rocked at 4° C. for 30 min and clarified by centrifuging 20 min at 12000×g. Lysates were then made 1× in Laemmli's buffer, boiled 2 min and loaded onto 7.5% SDS polyacrylamide […]. Immunoblot analysis for phospho PKB (Cell Signalling, Mississauga, Ont), SHIP and actin (Santa Cruz, Santa Cruz, Calif.) were carried out as described previously.
The target specificity and biological efficacy of AQX-016A were assessed by comparing AQX-016A's effects on PI3K-regulated processes in primary SHIP^+/+ vs SHIP^−/− macrophages and mast cells. […] LPS stimulation of macrophages is associated with a PIP3-dependent release of pro-inflammatory mediators such as TNFα. […]

SHIP enzyme = experiment: In vitro SHIP enzyme assay (Assay 1); format: biochemical; as to Assay Number 1: SHIP enzyme assay: key: a ‘+’ indicates a positive result for desired activity; a ‘−’ indicates a negative result for desired activity
Method: Assay 1) In vitro testing in a SHIP enzyme assay. Test compounds were dissolved in a suitable solvent (e.g. EtOH, DMSO and others) and diluted into aqueous buffer (20 mM Tris HCl, pH 7.5 and 10 mM MgCl2). SHIP enzyme assays were performed in 96-well microtitre plates with 10 ng of enzyme/well in a total volume of 25 μL of 20 mM Tris HCl, pH 7.5 and 10 mM MgCl2. SHIP enzyme was incubated with test extracts (provided in solvent) or vehicle for 15 min at 23° C. before the addition of 100 μM inositol-1,3,4,5-tetrakisphosphate (Echelon Biosciences Inc, Salt Lake City, Utah). After 20 min at 37° C. and the amount of inorganic phosphate released assessed by the addition of Malachite Green reagent and absorbance measurement at 650 nm.
For in vitro testing in the SHIP enzyme assay, AQX-016A and Compound 100 were dissolved in EtOH and diluted into aqueous buffer (20 mM Tris HCl, pH 7.5 and 10 mM MgCl2). The actual concentration of drug in solution was determined by optical density measurement at 280 nm (λmax for both compounds) after high speed centrifugation at 14 000×g for 30 min to remove precipitated drug. For testing on cells, compounds were formulated in the carrier cyclodextrin (Cyclodex Technologies, High Springs, Fla.) at 6 mM (2 mg/mL). For oral administration to animals, compounds were dissolved in 100% cremophore EL (Sigma-Aldrich Canada, Oakville, Ontario) at 150 mM (50 mg/mL) prior to dilution to 6 mM in phosphate buffer saline. However, while these compounds caged in cyclodextrin or formulated in cremophore EL micelles were very soluble in aqueous solution, they could not be used in the SHIP enzyme assays because of interference from both cyclodextrin and cremophore EL.
N-terminal His6 tagged SHIP enzyme was expressed in mammalian 293T cells by transient transfection with pME18S-His-SHIP plasmid and purified to >95% homogeneity by Ni-chelating bead chromatography (Qiagen, Mississauga, Ontario). Recombinant SHIP C2 domain (amino acid residues 725 to 863) was expressed in E. coli transformed with a pET28C expression vector constructed as described below. Recombinant protein purified from the cell lysates by Nichelating bead chromatography was >95% pure.
In vitro SHIP enzyme assay. SHIP enzyme assays were performed in 96-well microtitre plates with 10 ng of enzyme/well in a total volume of 25 μL of 20 mM Tris HCl, pH 7.5 and 10 Mm MgCl2. SHIP enzyme was incubated with test extracts (provided in DMSO) or vehicle for 15 min at 23° C. before the addition of 100 μM inositol-1,3,4,5-tetrakisphosphate (Echelon Biosciences Inc, Salt Lake City, Utah). After 20 min at 37° C. and the amount of inorganic phosphate released assessed by the addition of Malachite Green reagent and absorbance measurement at 650 nm. SHIP2 enzyme was purchased from Echelon Biosciences (Salt Lake City, Utah) and an equivalent amount of inositol phosphatase activity was used in the in vitro enzyme assay. Enzyme data are expressed as the mean of triplicates +/−SEM. Experiments were performed at least 3 times. (FIGS. 7A and 7B).

- EC50 for inhibition of TNFα production ([1]; LPS stimulated SHIP+/+ macrophages): submicromolar
- Assay Number 1: SHIP enzyme assay (SHIP enzyme; 100 μM inositol-1,3,4,5-tetrakisphosphate, Malachite Green): +
- SHIP enzyme activity (SHIP enzyme; wild-type SHIP): enhanced SHIP enzyme activity in vitro
SMILES: Cc1cc(O)cc2c1[C@]1(C)CCC3C(C)(C)CCC[C@]3(C)[C@H]1C2 (some centres unmarked) [Compound 100]
- Assay Number 4: Stimulation of mast cells by FcεRI crosslinking (Mast cells): +
- inhibition of TNFα production, SHIP+/+ vs SHIP−/− macrophages ([1]; LPS stimulated): selectively inhibited
